# In the supplement of paper PMC10627819:
# Legend:
# B. subtilis 168 = experiment: Bliss interaction score (quartile over a dose matrix) (fitness difference); higher = more antagonism (negative = synergy)
# In short: (§1)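 At entry into stationary phase, OD595 was recorded and divided by the robust mean of the no-drug wells on that plate, with any value above 1 set to 1. This gives the fitness measure used throughout. Single-drug fitness was inferred from combination data, and the Bliss score, observed minus product-expected fitness, is shown as quartiles across technical, biological and donor/recipient replicates.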
# S. aureus DSM 20231 = experiment: as above
# In short: as §1
# S. pneumoniae D39V [1] = experiment: as above
# In short: as §1
# S. aureus Newman = experiment: as above
# In short: as §1
# S. pneumoniae D39V [2] = experiment: fitness (endpoint OD595 vs no drug) (fraction); higher = more growth
# In short: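 Fitness expresses the optical density reached at the stationary-phase transition as a fraction of the robust mean of no-drug control wells. It is capped at 1. Measurements were OD595 every 30 min for 14 h at 37 °C after inoculation of 384-well plates at OD595 0.01 (30 µl, or 55 µl for S. pneumoniae), minus the first reading.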
# 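For Bliss interaction score (quartile over a dose matrix) in this document: first quartile when negative (synergy) and third quartile when positive (antagonism).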
smiles,measurement,setting,value
CO/N=C(\C(=O)N[C@@H]1C(=O)N2C(C(=O)[O-])=C(C[N+]3(C)CCCC3)CS[C@H]12)c1csc(N)n1 [Cefepime] + CCC(C)C1C(=O)NC(=C)C(=O)NC(C(=O)NC(CSCC(C(=O)N1)NC(=O)/C(=C/C)/NC(=O)C(C(C)CC)N)C(=O)NC2C(SCC(NC(=O)CNC(=O)C3CCCN3C2=O)C(=O)NC(CCCCN)C(=O)NC4C(SCC(NC(=O)CNC(=O)C(NC(=O)C(NC(=O)C(NC(=O)CNC4=O)C)CC(C)C)CCSC)C(=O)NC(CC(=O)N)C(=O)NC(CCSC)C(=O)NC(CCCCN)C(=O)NC5C(SCC6C(=O)NC(C(=O)NC(CSC(C(C(=O)N6)NC(=O)C(NC5=O)C)C)C(=O)NC(CO)C(=O)NC(C(C)CC)C(=O)NC(CC7=CN=CN7)C(=O)NC(C(C)C)C(=O)NC(=C)C(=O)NC(CCCCN)C(=O)O)CC8=CN=CN8)C)C)C)CC(C)C [Nisin],Bliss interaction score,B. subtilis 168; main component drawn,-0.0465
same,Bliss interaction score,S. aureus DSM 20231; main component drawn,-0.0745
same,Bliss interaction score,S. pneumoniae D39V [1]; main component drawn,-0.0526
same,Bliss interaction score,S. aureus Newman; main component drawn,-0.0777
same,fitness,"S. pneumoniae D39V [2]; first compound 0.007 µg/mL, partner 1.6 µg/mL, main component drawn",0.0039
same,fitness,"S. pneumoniae D39V [2]; first compound 0.007 µg/mL, partner 3.2 µg/mL, main component drawn",0.0024
same,fitness,"S. pneumoniae D39V [2]; first compound 0.007 µg/mL, partner 6.4 µg/mL, main component drawn",0.0023
same,fitness,"S. pneumoniae D39V [2]; first compound 0.0078 µg/mL, partner 0.4275 µg/mL, main component drawn",0.996
same,fitness,"S. pneumoniae D39V [2]; first compound 0.0078 µg/mL, partner 0.855 µg/mL, main component drawn",≥ 1
same,fitness,"S. pneumoniae D39V [2]; first compound 0.0078 µg/mL, partner 1.71 µg/mL, main component drawn",0.189
same,fitness,"S. pneumoniae D39V [2]; first compound 0.014 µg/mL, partner 1.6 µg/mL, main component drawn",0.0058
same,fitness,"S. pneumoniae D39V [2]; first compound 0.014 µg/mL, partner 3.2 µg/mL, main component drawn",0.0156
same,fitness,"S. pneumoniae D39V [2]; first compound 0.014 µg/mL, partner 6.4 µg/mL, main component drawn",0.0123
same,fitness,"S. pneumoniae D39V [2]; first compound 0.0155 µg/mL, partner 0.4275 µg/mL, main component drawn",0.996
same,fitness,"S. pneumoniae D39V [2]; first compound 0.0155 µg/mL, partner 0.855 µg/mL, main component drawn",0.974
same,fitness,"S. pneumoniae D39V [2]; first compound 0.0155 µg/mL, partner 1.71 µg/mL, main component drawn",0.126
same,fitness,"S. pneumoniae D39V [2]; first compound 0.028 µg/mL, partner 1.6 µg/mL, main component drawn",0.0484
same,fitness,"S. pneumoniae D39V [2]; first compound 0.028 µg/mL, partner 3.2 µg/mL, main component drawn",0.0251
same,fitness,"S. pneumoniae D39V [2]; first compound 0.028 µg/mL, partner 6.4 µg/mL, main component drawn",0.0152
same,fitness,"S. pneumoniae D39V [2]; first compound 0.031 µg/mL, partner 1.71 µg/mL, main component drawn",0.103
CO/N=C(\C(=O)N[C@@H]1C(=O)N2C(C(=O)[O-])=C(C[N+]3(C)CCCC3)CS[C@H]12)c1csc(N)n1 [Cefepime] + CN(C)C(=O)C(CCN1CCC(O)(c2ccc(Cl)cc2)CC1)(c1ccccc1)c1ccccc1 [Loperamide],Bliss interaction score,B. subtilis 168,-0.171
same,Bliss interaction score,S. aureus DSM 20231,0.156
same,Bliss interaction score,S. pneumoniae D39V [1],-0.0863
same,Bliss interaction score,S. aureus Newman,0.0533
same,fitness,"S. pneumoniae D39V [2]; first compound 0.007 µg/mL, partner 20 µg/mL",≥ 1
same,fitness,"S. pneumoniae D39V [2]; first compound 0.007 µg/mL, partner 40 µg/mL",≥ 1
same,fitness,"S. pneumoniae D39V [2]; first compound 0.007 µg/mL, partner 80 µg/mL",0.913
same,fitness,"S. pneumoniae D39V [2]; first compound 0.0078 µg/mL, partner 17.14 µg/mL",≥ 1
same,fitness,"S. pneumoniae D39V [2]; first compound 0.0078 µg/mL, partner 34.28 µg/mL",0.969
same,fitness,"S. pneumoniae D39V [2]; first compound 0.0078 µg/mL, partner 68.57 µg/mL, one replicate",≥ 1
same,fitness,"S. pneumoniae D39V [2]; first compound 0.014 µg/mL, partner 20 µg/mL",≥ 1
same,fitness,"S. pneumoniae D39V [2]; first compound 0.014 µg/mL, partner 40 µg/mL",≥ 1
same,fitness,"S. pneumoniae D39V [2]; first compound 0.0155 µg/mL, partner 17.14 µg/mL",0.952
same,fitness,"S. pneumoniae D39V [2]; first compound 0.0155 µg/mL, partner 34.28 µg/mL",0.854
same,fitness,"S. pneumoniae D39V [2]; first compound 0.0155 µg/mL, partner 68.57 µg/mL, one replicate",≥ 1
same,fitness,"S. pneumoniae D39V [2]; first compound 0.028 µg/mL, partner 20 µg/mL",0.911
same,fitness,"S. pneumoniae D39V [2]; first compound 0.028 µg/mL, partner 40 µg/mL",0.841
same,fitness,"S. pneumoniae D39V [2]; first compound 0.031 µg/mL, partner 68.57 µg/mL, one replicate",0.48
CCCCCCCCCC(=O)N[C@@H](Cc1c[nH]c2ccccc12)C(=O)N[C@H](CC(N)=O)C(=O)N[C@@H](CC(=O)O)C(=O)N[C@@H]1C(=O)NCC(=O)N[C@@H](CCCN)C(=O)N[C@@H](CC(=O)O)C(=O)N[C@H](C)C(=O)N[C@@H](CC(=O)O)C(=O)NCC(=O)N[C@H](CO)C(=O)N[C@@H]([C@H](C)CC(=O)O)C(=O)N[C@@H](CC(=O)c2ccccc2N)C(=O)O[C@@H]1C [Daptomycin] + CN[C@H](CC(C)C)C(=O)N[C@H]1C(=O)N[C@@H](CC(N)=O)C(=O)N[C@H]2C(=O)N[C@H]3C(=O)N[C@H](C(=O)N[C@H](C(=O)O)c4cc(O)cc(O)c4-c4cc3ccc4O)[C@H](O[C@H]3C[C@](C)(N)[C@@H](O)[C@H](C)O3)c3ccc(c(Cl)c3)Oc3cc2cc(c3O[C@@H]2O[C@H](CO)[C@@H](O)[C@H](O)[C@H]2O[C@H]2C[C@](C)(NCc3ccc(-c4ccc(Cl)cc4)cc3)[C@@H](O)[C@H](C)O2)Oc2ccc(cc2Cl)[C@H]1O [Oritavancin],Bliss interaction score,B. subtilis 168,-0.0305
same,Bliss interaction score,S. aureus DSM 20231,0.0891
same,Bliss interaction score,S. pneumoniae D39V [1],0.0853
same,Bliss interaction score,S. aureus Newman,0.0913
CO/N=C(\C(=O)N[C@@H]1C(=O)N2C(C(=O)[O-])=C(C[N+]3(C)CCCC3)CS[C@H]12)c1csc(N)n1 [Cefepime] + CC1(C)S[C@@H]2[C@H](NC(=O)Cc3ccccc3)C(=O)N2[C@H]1C(=O)O [PenicillinG],Bliss interaction score,B. subtilis 168,-0.0668
same,Bliss interaction score,S. aureus DSM 20231,0.0733
same,Bliss interaction score,S. pneumoniae D39V [1],-0.0873
same,Bliss interaction score,S. aureus Newman,-0.0463
CO/N=C(\C(=O)N[C@@H]1C(=O)N2C(C(=O)[O-])=C(C[N+]3(C)CCCC3)CS[C@H]12)c1csc(N)n1 [Cefepime] + O=C(O[C@@H]1Cc2c(O)cc(O)cc2O[C@@H]1c1cc(O)c(O)c(O)c1)c1cc(O)c(O)c(O)c1 [EGCG],Bliss interaction score,B. subtilis 168,0.0402
same,Bliss interaction score,S. aureus DSM 20231,-0.159
same,Bliss interaction score,S. pneumoniae D39V [1],0.0602
same,Bliss interaction score,S. aureus Newman,-0.0498
